According to ChEMBL document CHEMBL4028802, “DILIrank: the largest reference drug list ranked by the risk for developing drug-induced liver injury in humans” (Drug Discov Today, 2016):

Legend:
Homo sapiens [1] = organism: Homo sapiens; assay: Liver toxicity in human assessed as induction of drug-induced liver injury by measuring severity class index
Homo sapiens [2] = organism: Homo sapiens; assay: Liver toxicity in human assessed as induction of drug-induced liver injury by measuring verified drug-induced liver injury concern status
Throughout, for DILI severity class: key of the grades not given here.

Structure (SMILES) | DILI_severity_class (Homo sapiens [1]) | DILI_Concern (Homo sapiens [2])
CC(=O)O.CC(C)[C@@H]1NC(=O)[C@H](CCCCN)NC(=O)[C@@H](Cc2c[nH]c3ccccc23)NC(=O)[C@H](Cc2ccc(O)cc2)NC(=O)[C@@H](NC(=O)[C@H](N)Cc2ccc3ccccc3c2)CSSC[C@@H](C(=O)N[C@H](C(N)=O)[C@@H](C)O)NC1=O [LANREOTIDE ACETATE] | 2 | Ambiguous-Dili-Concern
Cc1c(OCC(F)(F)F)ccnc1C[S+]([O-])c1nc2ccccc2[nH]1 (stereo unspecified) [LANSOPRAZOLE] | 3 | Less-Dili-Concern
CS(=O)(=O)CCNCc1ccc(-c2ccc3ncnc(Nc4ccc(OCc5cccc(F)c5)c(Cl)c4)c3c2)o1 [LAPATINIB] | 8 | Most-Dili-Concern
Cc1oncc1C(=O)Nc1ccc(C(F)(F)F)cc1 [LEFLUNOMIDE] | 8 | Most-Dili-Concern
Nc1cccc2c1CN(C1CCC(=O)NC1=O)C2=O (stereo unspecified) [LENALIDOMIDE] | 3 | Less-Dili-Concern
N#Cc1ccc(C(c2ccc(C#N)cc2)n2cncn2)cc1 [LETROZOLE] | 2 | Less-Dili-Concern
Nc1nc(=O)c2c([nH]1)NCC(CNc1ccc(C(=O)N[C@@H](CCC(=O)[O-])C(=O)[O-])cc1)N2C=O.[Ca+2] (stereo partly specified) [LEUCOVORIN CALCIUM] | 0 | No-Dili-Concern
Nc1nc2c(c(=O)[nH]1)N(C=O)C(CNc1ccc(C(=O)N[C@@H](CCC(=O)O)C(=O)O)cc1)CN2 (stereo partly specified) [LEUCOVORIN] | 0 | No-Dili-Concern
C[N+](C)(C)C[C@H](O)CC(=O)[O-] [LEVOCARNITINE] | 0 | No-Dili-Concern
Cl.Cl.O=C(O)COCCN1CCN([C@H](c2ccccc2)c2ccc(Cl)cc2)CC1 [LEVOCETIRIZINE DIHYDROCHLORIDE] | 4 | Less-Dili-Concern
C[C@H]1COc2c(N3CCN(C)CC3)c(F)cc3c(=O)c(C(=O)O)cn1c23.C[C@H]1COc2c(N3CCN(C)CC3)c(F)cc3c(=O)c(C(=O)O)cn1c23.O [LEVOFLOXACIN] | 8 | Most-Dili-Concern
CN1c2c(nc(N)[nH]c2=O)NC[C@@H]1CNc1ccc(C(=O)N[C@@H](CCC(=O)[O-])C(=O)[O-])cc1.[Ca+2] [LEVOMEFOLATE CALCIUM] | 0 | No-Dili-Concern
C#C[C@]1(O)CC[C@H]2[C@@H]3CCC4=CC(=O)CC[C@@H]4[C@H]3CC[C@@]21CC [LEVONORGESTREL] | 0 | No-Dili-Concern
CN1CC[C@]23CCCC[C@H]2[C@H]1Cc1ccc(O)cc13 [LEVORPHANOL] | 0 | No-Dili-Concern
N[C@@H](Cc1cc(I)c(Oc2cc(I)c(O)c(I)c2)c(I)c1)C(=O)O [LEVOTHYROXINE] | 3 | Less-Dili-Concern
CCN(CC)CC(=O)Nc1c(C)cccc1C [LIDOCAINE] | 0 | No-Dili-Concern
CCC[C@@H]1C[C@@H](C(=O)N[C@@H]([C@H]2O[C@H](SC)[C@H](O)[C@@H](O)[C@H]2O)[C@@H](C)O)N(C)C1 [LINCOMYCIN] | 3 | Ambiguous-Dili-Concern
CC(=O)NC[C@H]1CN(c2ccc(N3CCOCC3)c(F)c2)C(=O)O1 [LINEZOLID] | 3 | Less-Dili-Concern
N[C@@H](Cc1cc(I)c(Oc2ccc(O)c(I)c2)c(I)c1)C(=O)O [LIOTHYRONINE] | 0 | No-Dili-Concern
C[C@@H](Cc1ccccc1)NC(=O)[C@@H](N)CCCCN [LISDEXAMFETAMINE] | 3 | Ambiguous-Dili-Concern
NCCCC[C@H](N[C@@H](CCc1ccccc1)C(=O)O)C(=O)N1CCC[C@H]1C(=O)O [LISINOPRIL ANHYDROUS] | 3 | Less-Dili-Concern
O=NN(CCCl)C(=O)NC1CCCCC1 [LOMUSTINE] | 3 | Less-Dili-Concern
CN(C)C(=O)C(CCN1CCC(O)(c2ccc(Cl)cc2)CC1)(c1ccccc1)c1ccccc1 [LOPERAMIDE] | 0 | No-Dili-Concern
N[C@@H](C(=O)N[C@@H]1C(=O)N2C(C(=O)O)=C(Cl)CC[C@H]12)c1ccccc1 [LORACARBEF ANHYDROUS] | 3 | Less-Dili-Concern
O=C1Nc2ccc(Cl)cc2C(c2ccccc2Cl)=NC1O (stereo unspecified) [LORAZEPAM] | 3 | Ambiguous-Dili-Concern
CCCCc1nc(Cl)c(CO)n1Cc1ccc(-c2ccccc2-c2nn[nH]n2)cc1 [LOSARTAN] | 4 | Less-Dili-Concern
CN1CCN(C2=Nc3ccccc3Oc3ccc(Cl)cc32)CC1 [LOXAPINE] | 5 | Ambiguous-Dili-Concern

Structure (SMILES) | DILI_severity_class (Homo sapiens [1]) | DILI_Concern (Homo sapiens [2])
CCCCC(F)(F)[C@@]1(O)CC[C@H]2[C@@H](CC(=O)[C@@H]2CCCCCCC(=O)O)O1 [LUBIPROSTONE] | 0 | No-Dili-Concern
Cc1ccc(Nc2c(F)cccc2Cl)c(CC(=O)O)c1 [LUMIRACOXIB] | 8 | Most-Dili-Concern
OC[C@@H](O)[C@@H](O)[C@H](O)[C@H](O)CO [MANNITOL] | 0 | No-Dili-Concern
CNCCCC12CCC(c3ccccc31)c1ccccc12 [MAPROTILINE] | 5 | Ambiguous-Dili-Concern
Cc1nnc(C(C)C)n1[C@@H]1C[C@H]2CC[C@@H](C1)N2CC[C@H](NC(=O)C1CCC(F)(F)CC1)c1ccccc1 [MARAVIROC] | 3 | Most-Dili-Concern
CC(NN)c1ccccc1 (stereo unspecified) [MEBANAZINE] | 8 | Most-Dili-Concern
COC(=O)Nc1nc2ccc(C(=O)c3ccccc3)cc2[nH]1 [MEBENDAZOLE] | 3 | Less-Dili-Concern
CNC1(C)C2CCC(C2)C1(C)C (stereo unspecified) [MECAMYLAMINE] | 0 | No-Dili-Concern
Cc1cccc(CN2CCN(C(c3ccccc3)c3ccc(Cl)cc3)CC2)c1 (stereo unspecified) [MECLIZINE] | 0 | No-Dili-Concern
Cc1ccc(Cl)c(Nc2ccccc2C(=O)O)c1Cl [MECLOFENAMIC ACID] | 3 | Ambiguous-Dili-Concern
Cc1cccc(Nc2ccccc2C(=O)O)c1C [MEFENAMIC ACID] | 8 | Most-Dili-Concern
Cc1cnc(NC(=O)C2=C(O)c3ccccc3S(=O)(=O)N2C)s1 [MELOXICAM] | 3 | Less-Dili-Concern
CC12CC3CC(C)(C1)CC(N)(C3)C2 [MEMANTINE] | 7 | Less-Dili-Concern
CN1CCCC(CN2c3ccccc3Sc3ccccc32)C1 (stereo unspecified) [MEPAZINE] | 8 | Most-Dili-Concern
C[N+]1(C)CCCC(OC(=O)C(O)(c2ccccc2)c2ccccc2)C1 (stereo unspecified) [MEPENZOLATE] | 0 | No-Dili-Concern
CCOC(=O)C1(c2ccccc2)CCN(C)CC1 [MEPERIDINE] | 0 | No-Dili-Concern
CCC1(c2ccccc2)NC(=O)N(C)C1=O (stereo unspecified) [MEPHENYTOIN] | 5 | Ambiguous-Dili-Concern
Cc1cccc(C)c1NC(=O)C1CCCCN1C (stereo unspecified) [MEPIVACAINE] | 0 | No-Dili-Concern
CCCC(C)(COC(N)=O)COC(N)=O [MEPROBAMATE] | 0 | No-Dili-Concern
Sc1ncnc2nc[nH]c12 [MERCAPTOPURINE ANHYDROUS] | 8 | Most-Dili-Concern
C[C@@H](O)[C@H]1C(=O)N2C(C(=O)O)=C(S[C@@H]3CN[C@H](C(=O)N(C)C)C3)[C@H](C)[C@H]12 [MEROPENEM] | 3 | Less-Dili-Concern
Nc1ccc(O)c(C(=O)O)c1 [MESALAMINE] | 7 | Less-Dili-Concern
O=S(=O)([O-])CCS.[Na+] [MESNA] | 3 | Ambiguous-Dili-Concern
CN1CCCCC1CCN1c2ccccc2Sc2ccc([S+](C)[O-])cc21 (stereo unspecified) [MESORIDAZINE] | 5 | Ambiguous-Dili-Concern
CC(C)NCC(O)c1cc(O)cc(O)c1 (stereo unspecified) [METAPROTERENOL] | 0 | No-Dili-Concern
Cc1cc(C)cc(OCC2CNC(=O)O2)c1 (stereo unspecified) [METAXALONE] | 5 | Less-Dili-Concern
